Biological target: T1, HIV integrase (Human immunodeficiency virus type 1 group M subtype B, UniProt P12497, F1332H)
T1 construct: HIV integrase full length gene; made in house; host or cells: Escherichia coli BL21(DE3)
Assay: Determination of enzyme (HIV integrase) inhibitory activity (strand transfer, microtiter plate, absorbance at 450 nm)
Format: biochemical, HIV (Human Immunodeficiency Virus (type 1))
Settings: recombinant HIV integrase (F185H) expressed in E. coli; donor DNA on streptavidin plate, digoxigenin target DNA; 37° C.
Description: The following explains evaluation methods of the HIV integrase inhibitory activity of the compound of the present invention.
(i) Construction of Recombinant Integrase Gene Expression System
(ii) Production and Purification of Integrase Protein
Escherichia coli recombinant BL21(DE3) transformed with plasmid pET21a-IN-F185H obtained in (i) was shake cultured at 30° C. in a liquid medium containing ampicillin. When the culture reached the logarithmic growth phase, isopropyl-β-D-thiogalactopyranoside was added to promote expression of integrase gene. The culture was continued for 3 hrs to promote accumulation of the integrase protein. The recombinant E. coli was collected in pellets by centrifugal separation and preserved at −80° C.
The E. coli was suspended in Lysis buffer (20 mM HEPES (pH 7.5), 5 mM DTT, 10 mM CHAPS, 10% glycerol) containing 1M sodium chloride and subjected to repeat pressurization and depressurization for rupture, and centrifugal separation at 4° C., 40,000×g, 60 min to recover a water-soluble fraction (supernatant). This was diluted 10-fold with Lysis buffer free of sodium chloride, mixed with SP-Sepharose (Pharmacia Corporation) and stirred at 4° C. for 60 min to allow adsorption of integrase protein to the resin. The resin was washed with Lysis buffer containing 100 mM sodium chloride and the integrase protein was eluted with Lysis buffer containing 1M sodium chloride.
The eluted integrase protein solution was applied to a Superdex 75 (Pharmacia Corporation) column for gel filtration. The protein was eluted with Lysis buffer containing 1M sodium chloride.
The obtained fractions of the integrate protein were collected and preserved at −80° C.
(iii) Preparation of DNA Solution
The following DNA synthesized by Greiner was dissolved in TE buffer (10 mM Tris-hydrochloric acid (pH 8.0), 1 mM EDTA) and mixed with donor DNA, target DNA, each complementary strand (+ and − strands) to 1 μM. The mixture was heated at 95° C. for 5 min, 80° C. for 10 min, 70° C. for 10 min, 60° C. for 10 min, 50° C. for 10 min and 40° C. for 10 min and preserved at 25° C. to give a double stranded DNA, which was used for the test. Donor DNA (− strand having biotin attached to the 5′ terminal)
(iv) Determination of Enzyme (HIV Integrase) Inhibitory activity
The donor DNA was diluted with TE buffer to 10 nM, of which 50 μl was added to each well of streptavidin-coated microtiter plate (Roche) and allowed to adsorb at 37° C. for 60 min. The DNA was washed with phosphate buffer (Dulbecco PBS, Sanko Junyaku Co., Ltd.) containing 0.1% Tween 20 and phosphate buffer. Then, a reaction mixture (70 μl) having the following composition, a test substance (10 μl) diluted with the reaction mixture and […] integrase protein (10 μl) were added to each well and reacted at 37° C. for 60 min.
Then, 50 nM target DNA (1.0 μl) was added, reacted at 37° C. for 10 min and washed with phosphate buffer containing 0.1% Tween 20 to stop the reaction.
Then, 100 mU/ml peroxidase labeled anti-digoxigenin antibody solution (Roche, 100 μl) was added, and the mixture was reacted at 37° C. for 60 min, followed by washing with phosphate buffer containing 0.1% Tween 20.
A peroxidase color solution (Bio Rad, 100 μl) was added and allowed to react at room temperature for 4 min. The color reaction was stopped by adding 1N sulfuric acid (100 μl). The absorbance at 450 nm was measured.
The HIV integrase inhibitory activity (IC50) of the compound of the present invention was calculated from the inhibition rate according to the following formula. […] Evaluation of Antiviral Activity

Compound | IC50 [nM]
O=C(O)c1cn(CCO)c2ccc(Cc3c(F)cccc3Cl)cc2c1=O [Example 1-33, 6-(2-Chloro-6-fluorobenzyl)-1-(2-hydroxyethyl)-4-oxo-1,4-dihydroquinoline-3-carboxylic acid] | 140
O=C(O)c1cn(CCCCCO)c2ccc(Cc3cccc(Cl)c3Cl)cc2c1=O [Example 1-34, 6-(2,3-Dichlorobenzyl)-1-(5-hydroxypentyl)-4-oxo-1,4-dihydroquinoline-3-carboxylic acid] | 350
Cn1cc(C(=O)O)c(=O)c2cc(Cc3cccc(Cl)c3Cl)ccc21 [Example 1-36, 6-(2,3-Dichlorobenzyl)-1-methyl-4-oxo-1,4-dihydroquinoline-3-carboxylic acid] | 180
CCn1cc(C(=O)O)c(=O)c2cc(Cc3cccc(Cl)c3Cl)ccc21 [Example 1-37, 6-(2,3-Dichlorobenzyl)-1-ethyl-4-oxo-1,4-dihydroquinoline-3-carboxylic acid] | 110
CCCn1cc(C(=O)O)c(=O)c2cc(Cc3cccc(Cl)c3Cl)ccc21 [Example 1-38, 6-(2,3-Dichlorobenzyl)-4-oxo-1-propyl-1,4-dihydroquinoline-3-carboxylic acid] | 170
CCCCn1cc(C(=O)O)c(=O)c2cc(Cc3cccc(Cl)c3Cl)ccc21 [Example 1-39, 1-Butyl-6-(2,3-Dichlorobenzyl)-4-oxo-1,4-dihydroquinoline-3-carboxylic acid] | 180
O=C(O)c1cn(CC2CCCC2)c2ccc(Cc3cccc(Cl)c3Cl)cc2c1=O [Example 1-40, 1-Cyclopentylmethyl-6-(2,3-dichlorobenzyl)-4-oxo-1,4-dihydroquinoline-3-carboxylic acid] | 110
CS(=O)(=O)CCn1cc(C(=O)O)c(=O)c2cc(Cc3cccc(Cl)c3Cl)ccc21 [Example 1-41, 6-(2,3-Dichlorobenzyl)-1-(2-methanesulfonylethyl)-4-oxo-1,4-dihydroquinoline-3-carboxylic acid] | 210
O=C(O)c1cn(CC2CCCCC2)c2ccc(Cc3cccc(Cl)c3Cl)cc2c1=O [Example 1-42, 1-Cyclohexylmethyl-6-(2,3-dichlorobenzyl)-4-oxo-1,4-dihydroquinoline-3-carboxylic acid] | 130
O=C(O)c1cn(CC(O)c2ccccc2)c2ccc(Cc3cccc(Cl)c3Cl)cc2c1=O (stereo not drawn) [Example 1-43, 6-(2,3-Dichlorobenzyl)-1-(2-hydroxy-2-phenylethyl)-4-oxo-1,4-dihydroquinoline-3-carboxylic acid] | 24
O=C(O)c1cn(CCF)c2ccc(Cc3cccc(Cl)c3Cl)cc2c1=O [Example 1-44, 6-(2,3-Dichlorobenzyl)-1-(2-fluoroethyl)-4-oxo-1,4-dihydroquinoline-3-carboxylic acid] | 51
O=C(O)c1cn(CCc2ccccn2)c2ccc(Cc3cccc(Cl)c3Cl)cc2c1=O [Example 1-45, 6-(2,3-Dichlorobenzyl)-4-oxo-1-(2-pyridin-2-ylethyl)-1,4-dihydroquinoline-3-carboxylic acid] | 210
NCCn1cc(C(=O)O)c(=O)c2cc(Cc3cccc(Cl)c3Cl)ccc21 [Example 1-46, 1-(2-Aminoethyl)-6-(2,3-dichlorobenzyl)-4-oxo-1,4-dihydroquinoline-3-carboxylic acid] | 420
CC(C)(O)Cn1cc(C(=O)O)c(=O)c2cc(Cc3cccc(Cl)c3Cl)ccc21 [Example 1-47, 6-(2,3-Dichlorobenzyl)-1-(2-hydroxy-2-methylpropyl)-4-oxo-1,4-dihydroquinoline-3-carboxylic acid] | 98
CC(=O)NCCn1cc(C(=O)O)c(=O)c2cc(Cc3cccc(Cl)c3Cl)ccc21 [Example 1-48, 1-(2-Acetylaminoethyl)-6-(2,3-dichlorobenzyl)-4-oxo-1,4-dihydroquinoline-3-carboxylic acid] | 380
CCOC(=O)NCCn1cc(C(=O)O)c(=O)c2cc(Cc3cccc(Cl)c3Cl)ccc21 [Example 1-49, 6-(2,3-Dichlorobenzyl)-1-(2-ethoxycarbonylaminoethyl)-4-oxo-1,4-dihydroquinoline-3-carboxylic acid] | 53
O=C(O)c1cn(CCO)c2ccc(Cc3cccc(F)c3F)cc2c1=O [Example 1-50, 6-(2,3-Difluorobenzyl)-1-(2-hydroxyethyl)-4-oxo-1,4-dihydroquinoline-3-carboxylic acid] | 110
O=C(O)c1cn(CCO)c2ccc(Cc3ccc(F)cc3Cl)cc2c1=O [Example 1-51, 6-(2-Chloro-4-fluorobenzyl)-1-(2-hydroxyethyl)-4-oxo-1,4-dihydroquinoline-3-carboxylic acid] | 180
O=C(O)c1cn(CCO)c2ccc(Cc3cccc(Cl)c3Cl)cc2c1=O [Example 1-63] | 20
O=C(O)c1cn(CCO)c2ccc(Cc3c(F)cccc3Cl)cc2c1=O [Example 1-64] | 56
O=C(O)c1cn(CCc2ccccc2)c2ccc(Cc3ccccc3Cl)cc2c1=O [Example 1-65, 6-(2-Chlorobenzyl)-4-oxo-1-phenethyl-1,4-dihydroquinoline-3-carboxylic acid] | 120
O=C(O)c1cn(CCO)c2ccc(Cc3cccc(F)c3Cl)cc2c1=O [Example 1-66, 6-(2-Chloro-3-fluorobenzyl)-1-(2-hydroxyethyl)-4-oxo-1,4-dihydroquinoline-3-carboxylic acid] | 49
O=C(O)c1cn(CCO)c2ccc(Cc3cccc([N+](=O)[O-])c3)cc2c1=O [Example 1-67] | 790
CSCn1cc(C(=O)O)c(=O)c2cc(Cc3cccc(Cl)c3Cl)ccc21 [Example 1-68, 6-(2,3-Dichlorobenzyl)-1-methylsulfanylmethyl-4-oxo-1,4-dihydroquinoline-3-carboxylic acid] | 49
CS(=O)(=O)Cn1cc(C(=O)O)c(=O)c2cc(Cc3cccc(Cl)c3Cl)ccc21 [Example 1-69, 6-(2,3-Dichlorobenzyl)-1-methanesulfonylmethyl-4-oxo-1,4-dihydroquinoline-3-carboxylic acid] | 74
CC(C)(C)NS(=O)(=O)Cn1cc(C(=O)O)c(=O)c2cc(Cc3cccc(Cl)c3Cl)ccc21 [Example 1-70, 1-tert-Butylsulfamoylmethyl-6-(2,3-dichlorobenzyl)-4-oxo-1,4-dihydroquinoline-3-carboxylic acid] | 82
CNS(=O)(=O)Cn1cc(C(=O)O)c(=O)c2cc(Cc3cccc(Cl)c3Cl)ccc21 [Example 1-71, 6-(2,3-Dichlorobenzyl)-1-methylsulfamoylmethyl-4-oxo-1,4-dihydroquinoline-3-carboxylic acid] | 13
CN(C)S(=O)(=O)Cn1cc(C(=O)O)c(=O)c2cc(Cc3cccc(Cl)c3Cl)ccc21 [Example 1-72, 6-(2,3-Dichlorobenzyl)-1-dimethylsulfamoylmethyl-4-oxo-1,4-dihydroquinoline-3-carboxylic acid] | 25
O=C(O)c1cn(CCO)c2ccc(Cc3c(F)ccc(F)c3Cl)cc2c1=O [Example 1-73, 6-(2-Chloro-3,6-difluorobenzyl)-1-(2-hydroxyethyl)-4-oxo-1,4-dihydroquinoline-3-carboxylic acid] | 31
O=C(O)c1cn(CC(O)CO)c2ccc(Cc3cccc(Cl)c3Cl)cc2c1=O (stereo not drawn) [Example 1-74, 6-(2,3-Dichlorobenzyl)-1-(2,3-Dihydroxypropyl)-4-oxo-1,4-dihydroquinoline-3-carboxylic acid] | 98

Source: patent publication US8232401B2 (Japan Tobacco Inc., priority 2002, dated 2012)
